Experimental data published in PubChem BioAssay AID1259407 (Chemical Carcinogenesis Research Information System (CCRIS), 2018).
Active and inactive are the calls of the source. How the calls were made is not given here.

Test system: CCRIS mutagenicity, Ames/micronucleus/aberration tests
Assay: CCRIS mutagenicity studies
[1] = Test System: AMES SALMONELLA TYPHIMURIUM, Strain/Indicator: TA97, Metabolic Activation: HAMSTER, LIVER, S-9, AROCLOR 1254 (10 OR 30%), Method: PREINCUBATION
[2] = Test System: AMES SALMONELLA TYPHIMURIUM, Strain/Indicator: TA97, Metabolic Activation: NONE, Method: PREINCUBATION
[3] = Test System: AMES SALMONELLA TYPHIMURIUM, Strain/Indicator: TA97, Metabolic Activation: RAT, LIVER, S-9, AROCLOR 1254 (10 OR 30%), Method: PREINCUBATION
[4] = Test System: AMES SALMONELLA TYPHIMURIUM, Strain/Indicator: TA98, Metabolic Activation: HAMSTER, LIVER, S-9, AROCLOR 1254 (10 OR 30%), Method: PREINCUBATION
[5] = Test System: AMES SALMONELLA TYPHIMURIUM, Strain/Indicator: TA98, Metabolic Activation: NONE, Method: PREINCUBATION
[6] = Test System: AMES SALMONELLA TYPHIMURIUM, Strain/Indicator: TA98, Metabolic Activation: RAT, LIVER, S-9, AROCLOR 1254 (10 OR 30%), Method: PREINCUBATION
[7] = Test System: AMES SALMONELLA TYPHIMURIUM, Strain/Indicator: TA100, Metabolic Activation: HAMSTER, LIVER, S-9, AROCLOR 1254 (10 OR 30%), Method: PREINCUBATION
[8] = Test System: AMES SALMONELLA TYPHIMURIUM, Strain/Indicator: TA100, Metabolic Activation: NONE, Method: PREINCUBATION
[9] = Test System: AMES SALMONELLA TYPHIMURIUM, Strain/Indicator: TA100, Metabolic Activation: RAT, LIVER, S-9, AROCLOR 1254 (10 OR 30%), Method: PREINCUBATION
[10] = Test System: AMES SALMONELLA TYPHIMURIUM, Strain/Indicator: TA1535, Metabolic Activation: HAMSTER, LIVER, S-9, AROCLOR 1254 (10 OR 30%), Method: PREINCUBATION
[11] = Test System: AMES SALMONELLA TYPHIMURIUM, Strain/Indicator: TA1535, Metabolic Activation: NONE, Method: PREINCUBATION
[12] = Test System: AMES SALMONELLA TYPHIMURIUM, Strain/Indicator: TA1535, Metabolic Activation: RAT, LIVER, S-9, AROCLOR 1254 (10 OR 30%), Method: PREINCUBATION
[13] = Test System: AMES SALMONELLA TYPHIMURIUM, Strain/Indicator: TA98, Metabolic Activation: NONE, Method: STANDARD PLATE
[14] = Test System: AMES SALMONELLA TYPHIMURIUM, Strain/Indicator: TA100, Metabolic Activation: NONE, Method: STANDARD PLATE
[15] = Test System: AMES SALMONELLA TYPHIMURIUM, Strain/Indicator: TA1535, Metabolic Activation: NONE, Method: STANDARD PLATE
[16] = Test System: AMES SALMONELLA TYPHIMURIUM, Strain/Indicator: TA1538, Metabolic Activation: NONE, Method: STANDARD PLATE

| SMILES | mutagenic call [1] | mutagenic call [2] | mutagenic call [3] | mutagenic call [4] | mutagenic call [5] | mutagenic call [6] | mutagenic call [7] | mutagenic call [8] | mutagenic call [9] | mutagenic call [10] | mutagenic call [11] | mutagenic call [12] | mutagenic call [13] | mutagenic call [14] | mutagenic call [15] | mutagenic call [16] | other results |
| --- | --- | --- | --- | --- | --- | --- | --- | --- | --- | --- | --- | --- | --- | --- | --- | --- | --- |
| c1ccc2c(c1)Oc1ccccc1S2 | inactive; negative | inactive; negative | inactive; negative | inactive; negative | inactive; negative | inactive; negative | inactive; negative | inactive; negative | inactive; negative | inactive; negative | inactive; negative | inactive; negative |  |  |  |  |  |
| Oc1cc(Cl)c(Cl)c(Cl)c1Cl | inactive; negative | inactive; negative | inactive; negative | inactive; negative | inactive; negative | inactive; negative | inactive; negative | inactive; negative | inactive; negative | inactive; negative | inactive; negative | inactive; negative |  |  |  |  | mutagenic call (End Point: IN VITRO CHROMOSOMAL ABERRATIONS, Test System: CHINESE HAMSTER LUNG CELLS (CHL), Metabolic Activation: NONE): inactive; negative; mutagenic call (End Point: IN VITRO CHROMOSOMAL ABERRATIONS, Test System: CHINESE HAMSTER LUNG CELLS (CHL), Metabolic Activation: RAT, LIVER, S-9, KC-400): active; positive (structural changes); mutagenic call (End Point: IN VITRO CHROMOSOMAL ABERRATIONS, Test System: CHINESE HAMSTER OVARY CELLS (CHO), Metabolic Activation: NONE): inactive; negative; mutagenic call (End Point: IN VITRO CHROMOSOMAL ABERRATIONS, Test System: CHINESE HAMSTER OVARY CELLS (CHO), Metabolic Activation: RAT, LIVER, S-9, AROCLOR 1254): active; positive (structural changes) |
| CCC(C)Br (configuration not stated) |  |  |  |  |  |  |  |  |  |  |  |  |  |  |  |  | mutagenic call (Test System: AMES SALMONELLA TYPHIMURIUM, Strain/Indicator: TA100, Metabolic Activation: NONE, Method: DESICCATOR): active; positive; mutagenic call (Test System: AMES SALMONELLA TYPHIMURIUM, Strain/Indicator: TA100, Metabolic Activation: RAT, LIVER, S-9, AROCLOR 1254, Method: DESICCATOR): active; positive; mutagenic call (Test System: AMES SALMONELLA TYPHIMURIUM, Strain/Indicator: TA1535, Metabolic Activation: NONE, Method: DESICCATOR): active; positive; mutagenic call (Test System: AMES SALMONELLA TYPHIMURIUM, Strain/Indicator: TA1535, Metabolic Activation: RAT, LIVER, S-9, AROCLOR 1254, Method: DESICCATOR): active; positive |
| Cn1c2ccccc2c(=O)c2c(O)cc3c(c21)CC(C(C)(O)CCl)O3 (configuration not stated) |  |  |  |  |  |  |  |  |  |  |  |  | active; positive | active; positive | inactive; negative | active; positive | mutagenic call (Test System: AMES SALMONELLA TYPHIMURIUM, Strain/Indicator: TA98, Metabolic Activation: RAT, LIVER, S-9, PHENOBARBITAL, Method: STANDARD PLATE): active; positive; mutagenic call (Test System: AMES SALMONELLA TYPHIMURIUM, Strain/Indicator: TA100, Metabolic Activation: RAT, LIVER, S-9, PHENOBARBITAL, Method: STANDARD PLATE): active; positive; mutagenic call (Test System: AMES SALMONELLA TYPHIMURIUM, Strain/Indicator: TA1535, Metabolic Activation: RAT, LIVER, S-9, PHENOBARBITAL, Method: STANDARD PLATE): inactive; negative; mutagenic call (Test System: AMES SALMONELLA TYPHIMURIUM, Strain/Indicator: TA1538, Metabolic Activation: RAT, LIVER, S-9, PHENOBARBITAL, Method: STANDARD PLATE): active; positive; mutagenic call (Test System: AMES SALMONELLA TYPHIMURIUM, Strain/Indicator: TA1978, Metabolic Activation: NONE, Method: STANDARD PLATE): active; positive; mutagenic call (Test System: AMES SALMONELLA TYPHIMURIUM, Strain/Indicator: TA1978, Metabolic Activation: RAT, LIVER, S-9, PHENOBARBITAL, Method: STANDARD PLATE): inactive; negative |
| CC/C=C\C/C=C\C/C=C\CCCCCCCC(=O)O |  |  |  |  |  |  |  |  |  |  |  |  | inactive; negative | inactive; negative | inactive; negative | inactive; negative | mutagenic call (Test System: AMES SALMONELLA TYPHIMURIUM, Strain/Indicator: TA98, Metabolic Activation: HAMSTER, LIVER, S-9, AROCLOR 1254, Method: STANDARD PLATE): inactive; negative; mutagenic call (Test System: AMES SALMONELLA TYPHIMURIUM, Strain/Indicator: TA98, Metabolic Activation: RAT, LIVER, S-9, AROCLOR 1254, Method: STANDARD PLATE): inactive; negative; mutagenic call (Test System: AMES SALMONELLA TYPHIMURIUM, Strain/Indicator: TA100, Metabolic Activation: HAMSTER, LIVER, S-9, AROCLOR 1254, Method: STANDARD PLATE): inactive; negative; mutagenic call (Test System: AMES SALMONELLA TYPHIMURIUM, Strain/Indicator: TA100, Metabolic Activation: RAT, LIVER, S-9, AROCLOR 1254, Method: STANDARD PLATE): inactive; negative; mutagenic call (Test System: AMES SALMONELLA TYPHIMURIUM, Strain/Indicator: TA1535, Metabolic Activation: HAMSTER, LIVER, S-9, AROCLOR 1254, Method: STANDARD PLATE): inactive; negative; mutagenic call (Test System: AMES SALMONELLA TYPHIMURIUM, Strain/Indicator: TA1535, Metabolic Activation: RAT, LIVER, S-9, AROCLOR 1254, Method: STANDARD PLATE): inactive; negative; mutagenic call (Test System: AMES SALMONELLA TYPHIMURIUM, Strain/Indicator: TA1537, Metabolic Activation: HAMSTER, LIVER, S-9, AROCLOR 1254, Method: STANDARD PLATE): inactive; negative; mutagenic call (Test System: AMES SALMONELLA TYPHIMURIUM, Strain/Indicator: TA1537, Metabolic Activation: NONE, Method: STANDARD PLATE): inactive; negative; mutagenic call (Test System: AMES SALMONELLA TYPHIMURIUM, Strain/Indicator: TA1537, Metabolic Activation: RAT, LIVER, S-9, AROCLOR 1254, Method: STANDARD PLATE): inactive; negative; mutagenic call (Test System: AMES SALMONELLA TYPHIMURIUM, Strain/Indicator: TA1538, Metabolic Activation: HAMSTER, LIVER, S-9, AROCLOR 1254, Method: STANDARD PLATE): inactive; negative; mutagenic call (Test System: AMES SALMONELLA TYPHIMURIUM, Strain/Indicator: TA1538, Metabolic Activation: RAT, LIVER, S-9, AROCLOR 1254, Method: STANDARD PLATE): inactive; negative; mutagenic call (Test System: MOUSE LYMPHOMA, Strain/Indicator: L5178Y (TK+/TK-), Metabolic Activation: NONE, Method: SUSPENSION/PLATE): inactive; negative. reevaluation of results: inconclusive; mutagenic call (Test System: MOUSE LYMPHOMA, Strain/Indicator: L5178Y (TK+/TK-), Metabolic Activation: RAT, LIVER, S-9, AROCLOR 1254, Method: SUSPENSION/PLATE): inactive; negative. reevaluation of results: negative |
| N=NCO |  |  |  |  |  |  |  |  |  |  |  |  |  |  | active; positive |  | mutagenic call (Test System: E. COLI, Strain/Indicator: WP2, Metabolic Activation: NONE, Method: STANDARD PLATE): active; positive; mutagenic call (Test System: E. COLI, Strain/Indicator: WP2 UVRA, Metabolic Activation: NONE, Method: STANDARD PLATE): active; positive |
